# Experiments:
# Kir2.1 = target: T1, Kir2.1 (Homo sapiens, UniProt P63252); test: Kir2.1 channel current, whole-cell patch-clamp; type: cell-based; conditions: Kir2.1+α1G HEK293 cell; -140 to -60 mV step pulse; 1-100 μM Ba2+, 5-500 μM Cs+
# T1 construct: expressed in transfected cells; host or cells: HEK293 cells stably expressing α1G T-type calcium channel, transduced with Kir2.1-pMSCVpuro retrovirus (Kir2.1+α1G HEK293)
# T1 sequence (P63252 1-427): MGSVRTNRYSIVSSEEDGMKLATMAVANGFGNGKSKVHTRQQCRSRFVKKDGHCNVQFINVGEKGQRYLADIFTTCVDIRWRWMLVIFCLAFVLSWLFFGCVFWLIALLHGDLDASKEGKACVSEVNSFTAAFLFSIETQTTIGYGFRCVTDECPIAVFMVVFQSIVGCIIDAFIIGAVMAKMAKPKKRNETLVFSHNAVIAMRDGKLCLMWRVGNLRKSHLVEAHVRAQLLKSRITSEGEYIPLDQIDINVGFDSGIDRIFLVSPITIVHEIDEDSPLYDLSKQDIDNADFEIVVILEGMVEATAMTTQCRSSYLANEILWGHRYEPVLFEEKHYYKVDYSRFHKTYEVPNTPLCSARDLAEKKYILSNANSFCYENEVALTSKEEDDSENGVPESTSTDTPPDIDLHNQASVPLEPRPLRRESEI
# Method: Further, the current of IRK-type potassium channel, Kir2.1 was also determined in a single cell level by the whole-cell patch-clamp method. An extracellular solution for determining IRK-type potassium channel activity comprised NaCl 135 mM, KCl 5.4 mM, CaCl2 1.8 mM, MgCl2 1 mM, HEPES 5 mM and glucose 10 mM (pH 7.4). An intracellular solution comprised D-gluconic acid (potassium salt form) 140 mM, MgCl2 2 mM, EGTA 1 mM, HEPES 5 mM and Na2ATP 1 mM (pH 7.4).
# After the cell membrane voltage was fixed as about −60 mV in a whole-cell recording mode, −140 to −60 mV of 200 ms step pulse was applied to determine the inward current induced by potassium inwardly-rectifying channel activation of HEK293 cell.
# Furthermore, the characteristics of Kir2.1 channel were analyzed by comparing with IC50 value for Ba^2+ and Cs^+, the conventionally known IRK-type potassium channel inhibitor. For this, Kir2.1 channel activity determination method, as discussed above, was used and the inhibition by the known Kir2.1 inhibitor, Ba^2+ and Cs^+, was observed.
# FIG. 4e and FIG. 4f are graphs showing the maximum current that occurred at each voltage when 1–100 μM Ba^2+ and 5–500 μM Cs^+ known as Kir2.1 inhibitor were administered to Kir2.1+α1G HEK293 cell under −140 to −60 mV step pulse.
# α1G HEK293 cell = test: Intracellular calcium with fura-2/AM, control cell; type: cell-based, human; conditions: 70 mM KCl
# Method: (§1) The calcium concentration in the cell was determined by using fura-2/AM as a fluorescent Ca^2+ label. The cells were primarily incubated with 5 μM fura-2/AM and 0.001% Pluronic F-127 in HEPES buffer solution (150 mM NaCl, 5 mM KCl, 1 mM MgCl2, 2 mM CaCl2, 10 mM HEPES, 10 mM glucose, pH 7.4) at a room temperature for about 40 to 60 minutes and then washed several times with HEPES buffer solution. After stablilzing the cells for about 10 minutes, the cells were selectively exposed to 340 nm and 380 nm by using an inverted microscope. Thereafter, the emitter fluorescence light that was entered through 515 nm long-pass filter was passed through a cooled CCD […]. The light was converted into the intracellular calcium concentration by digital fluorescence analyzer to determine the calcium concentration.
# Kir2.1+α1G HEK293 cell = test: Intracellular calcium with fura-2/AM, cell line of the invention; type: cell-based, human; conditions: 70 mM KCl
# Method: as §1
# [1] = target: T2, α1G T-type calcium channel (Rattus norvegicus, UniProt O54898); test: T-type calcium channel current, whole-cell patch-clamp; type: cell-based; conditions: activated at about -30 mV; Ni2+ 1 μM to 1 mM, mibefradil 0.1 to 10 μM
# T2 construct: expressed in transfected cells; host or cells: HEK293 stably expressing α1G (α1G HEK293, control) and Kir2.1+α1G HEK293
# T2 sequence (O54898 whole entry): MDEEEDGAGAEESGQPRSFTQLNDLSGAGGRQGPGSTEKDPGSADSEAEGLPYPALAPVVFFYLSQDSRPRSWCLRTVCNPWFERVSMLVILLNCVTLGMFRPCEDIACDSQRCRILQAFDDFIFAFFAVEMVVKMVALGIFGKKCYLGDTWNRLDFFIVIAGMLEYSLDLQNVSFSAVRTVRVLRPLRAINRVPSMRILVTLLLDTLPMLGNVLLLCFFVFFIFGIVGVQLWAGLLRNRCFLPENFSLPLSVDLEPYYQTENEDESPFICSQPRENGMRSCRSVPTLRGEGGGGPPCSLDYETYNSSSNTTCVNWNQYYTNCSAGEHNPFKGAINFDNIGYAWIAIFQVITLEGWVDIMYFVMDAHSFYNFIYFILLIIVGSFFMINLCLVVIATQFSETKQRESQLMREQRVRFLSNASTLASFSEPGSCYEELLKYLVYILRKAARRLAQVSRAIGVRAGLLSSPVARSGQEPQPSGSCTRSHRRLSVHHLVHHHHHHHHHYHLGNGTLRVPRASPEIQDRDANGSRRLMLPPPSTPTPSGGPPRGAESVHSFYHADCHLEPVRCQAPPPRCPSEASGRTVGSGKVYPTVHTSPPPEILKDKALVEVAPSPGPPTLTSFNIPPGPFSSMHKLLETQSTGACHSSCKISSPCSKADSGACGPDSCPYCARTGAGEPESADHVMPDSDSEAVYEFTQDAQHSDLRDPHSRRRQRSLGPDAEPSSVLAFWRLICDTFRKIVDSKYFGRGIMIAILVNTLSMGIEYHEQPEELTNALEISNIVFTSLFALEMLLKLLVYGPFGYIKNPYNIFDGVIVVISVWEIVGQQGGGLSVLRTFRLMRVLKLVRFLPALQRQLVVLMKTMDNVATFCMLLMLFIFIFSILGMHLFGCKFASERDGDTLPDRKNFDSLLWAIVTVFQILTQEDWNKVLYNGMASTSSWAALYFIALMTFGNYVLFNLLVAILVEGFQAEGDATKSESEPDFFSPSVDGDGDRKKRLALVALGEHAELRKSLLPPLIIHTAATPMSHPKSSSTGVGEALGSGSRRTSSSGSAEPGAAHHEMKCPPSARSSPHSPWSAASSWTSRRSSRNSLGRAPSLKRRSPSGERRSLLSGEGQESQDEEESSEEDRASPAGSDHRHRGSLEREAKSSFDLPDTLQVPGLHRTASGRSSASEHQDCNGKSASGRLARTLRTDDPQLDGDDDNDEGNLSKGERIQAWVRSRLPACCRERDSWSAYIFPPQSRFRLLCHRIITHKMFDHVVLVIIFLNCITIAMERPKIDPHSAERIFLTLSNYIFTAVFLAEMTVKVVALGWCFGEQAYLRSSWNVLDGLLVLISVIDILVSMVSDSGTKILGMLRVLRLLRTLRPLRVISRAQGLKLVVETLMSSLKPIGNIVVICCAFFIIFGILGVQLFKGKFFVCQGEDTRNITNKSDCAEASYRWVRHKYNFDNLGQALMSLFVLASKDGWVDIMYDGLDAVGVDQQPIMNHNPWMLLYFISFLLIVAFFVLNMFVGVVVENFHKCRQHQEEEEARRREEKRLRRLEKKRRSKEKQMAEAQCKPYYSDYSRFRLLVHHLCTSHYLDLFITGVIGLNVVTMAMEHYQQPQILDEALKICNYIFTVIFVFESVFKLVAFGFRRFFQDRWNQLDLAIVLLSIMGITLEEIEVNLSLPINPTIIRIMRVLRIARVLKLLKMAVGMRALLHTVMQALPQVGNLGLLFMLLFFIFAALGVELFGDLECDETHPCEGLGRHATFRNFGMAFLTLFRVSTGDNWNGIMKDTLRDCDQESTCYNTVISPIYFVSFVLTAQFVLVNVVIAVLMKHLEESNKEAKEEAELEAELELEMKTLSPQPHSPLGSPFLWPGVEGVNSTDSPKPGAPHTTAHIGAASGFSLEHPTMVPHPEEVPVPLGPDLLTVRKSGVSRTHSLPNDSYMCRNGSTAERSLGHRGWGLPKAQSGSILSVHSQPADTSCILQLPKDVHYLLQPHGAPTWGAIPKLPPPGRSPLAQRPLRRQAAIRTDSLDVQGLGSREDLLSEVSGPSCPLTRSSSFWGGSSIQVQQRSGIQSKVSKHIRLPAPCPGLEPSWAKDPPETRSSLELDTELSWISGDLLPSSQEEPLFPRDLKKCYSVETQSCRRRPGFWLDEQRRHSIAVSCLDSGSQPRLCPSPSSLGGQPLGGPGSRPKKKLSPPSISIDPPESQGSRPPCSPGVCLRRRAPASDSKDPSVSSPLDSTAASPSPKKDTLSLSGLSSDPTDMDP
# Method: EPC-9 amplifier (HEKA, Germany) was used to determine the current of T-type calcium channel in a single cell level by electrophysiological whole-cell patch-clamp method. An extracellular solution for determining T-type calcium channel activity comprised NaCl 140 mM, CaCl2 2 mM and HEPES 10 mM (pH 7.4), whereas an intracellular solution comprised KCl 130 mM, HEPES 10 mM, EGTA 11 mM and MgATP 5 mM (pH 7.4).
# The prepared intracellular solution was introduced into a microglass electrode of about 3–4 MΦ resistance. Then, the single cell was pricked with the electrode to fix the cell membrane voltage as about −100 mV in a whole-cell recording mode. Thereafter, the inward current was determined, in which the current was induced by T-type calcium channel activity when the hypopolarization was caused by about −30 mV (50 ms duration) approximately every 10 seconds.
# Furthermore, the characteristics of the channel were analyzed by comparing with IC50 value for Ni^2+ and mibefradil, the conventionally known T-type calcium channel inhibitor. About 1 μM to 1 mM of Ni^2+ and about 0.1 to 10 μM of mibefradil were administered to the cell, respectively, according to the electrophysiological whole-cell patch-clamp method as described above, and then the inhibition (%) of the maximum of the inward current, caused through T-type calcium channel activated at or about −30 mV, was determined.
Compound,inhibition of Kir2.1 current (maximum current at each voltage) (Kir2.1),"IC50 for inhibition of inward current through T-type calcium channel, Kir2.1+α1G HEK293 cell compared with α1G HEK293 cell [1]",other results
[Ba+2] [Ba^2+],inhibited in a concentration-dependent manner,,
[Cs+] [Cs^+],inhibited in a concentration-dependent manner,,
[Cl-].[K+] [KCl],,,calcium influx (α1G HEK293 cell): does not change calcium influx; calcium influx (Kir2.1+α1G HEK293 cell): calcium influx is induced
[Ni+2] [Ni^2+],,not significantly different,
COCC(=O)O[C@]1(CCN(C)CCCc2nc3ccccc3[nH]2)CCc2cc(F)ccc2[C@@H]1C(C)C [mibefradil],,not significantly different,

# From patent publication US6984521B2, “HEK293 cell line for activity studies and HTS system of α1G T-type Ca2+ channel” (Korea Institute of Science and Technology, priority 2003, dated 2006)
